Test results from patent US20120015967A1, “PYRIMIDINE AND PYRIDINE DERIVATIVES AS POSH AND POSH-AP INHIBITORS” (PROTEOLOGICS, LTD., priority 2007, published 2012).
Read-outs that look alike come from different tables or passages of the source.

Tests used:
HIV-1 = experiment: Assay for virus release (HIV-1 p24 / VLP release) in Jurkat cells transfected with pNLenv1; type: cell-based; settings: Human immunodeficiency virus 1, 24 h, VLP release one day after transfection, anti-CA immunoblot
Method: The POSH inhibitor Compound 1 was tested for its efficiency of viral budding and GAG expression and processing in treated and untreated Jurkat cells. The concentration of extracellular GAG p24 was used as an indication of viral budding.
Jurkat cells were incubated with Compound 1 for either 1 or 3 days. The next day, cells were transfected with the plasmid pNLenv1 (2 μg/ml). Virus-like particle (VLP) release was determined one day after transfection as follows: the culture medium of virus-expressing cells was collected and centrifuged at 500×g for 10 minutes. The resulting supernatant was passed through a 0.45 μm-pore filter and the filtrate was centrifuged at 14,000×g for 2 hours at 4° C. The corresponding cells were washed three times with phosphate-buffered saline (PBS) and then solubilized by incubation on ice for 15 minutes in lysis buffer containing the following components: 50 mM Hepes-NaOH, (pH 7.5), 150 mM NaCl, 1.5 mM MgCl2, 0.5% NP-40, 0.5% sodium deoxycholate, 1 mM EDTA, 1 mM EGTA and 1:200 dilution of protease inhibitor cocktail (EMD Biosciences, Inc.). […] The CA was detected after incubation with a secondary anti-rabbit horseradish peroxidase-conjugated antibody, and detected by Enhanced Chemi-Luminescence (ECL) (Amersham Biosciences, Corp.) and detected by fluorescence imaging (Typhoon Instrument, Amersham Biosciences, Corp.). […]

hPOSH = molecular target: T1, hPOSH (Homo sapiens, UniProt Q7Z6J0); experiment: HTS TR-FRET assay of POSH autoubiquitination; type: biochemical; settings: in vitro TR-FRET, GST tagged hPOSH with E1 and UbcH5c; read-out: IC50, inhibition of POSH autoubiquitination
T1 construct: a fused GST-RING subunit of POSH protein and two fluorophore-conjugated detection reagents
T1 sequence (Q7Z6J0 12-53 limits assumed): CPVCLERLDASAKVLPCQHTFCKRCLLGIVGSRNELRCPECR
Method: In order to test compounds as inhibitors of POSH, a ubiquitin protein ligase (E3) containing a RING domain that mediates its own ubiquitination in a RING finger-dependent manner in the presence of E1 and E2, a HTS (high-throughput screening) homogeneous TR-FRET (Time-Resolved Fluorescence Resonance Energy Transfer) assay was conducted to monitor POSH autoubiquitination.
The assay employs an ubiquitin-activating enzyme (E1) and an ubiquitin-conjugating enzyme (E2), a fused GST-RING subunit of POSH protein and two fluorophore-conjugated detection reagents, namely anti-GSTXL665 and europium cryptate-labeled ubiquitin. This homogeneous assay is based on FRET between a Eu^3+ cryptate donor and a second fluorescent label (acceptor), allophycocyanin. Allophycocyanin, a 105 kDa phycobiliprotein, is crosslinked to ensure its stability.
The ubiquitination of POSH by ubiquitin cryptate and binding of the anti-GST tagged XL665 brings the fluorophores into close proximity allowing FRET reaction to occur (see diagram).
Self-ubiquitination of hPOSH was determined by homogenous time-resolved fluorescence resonance energy transfer assay (TR-FRET). […]
where: S=actual fluorescence, B=Fluorescence obtained in parallel incubation without cb1-b, C=Fluorescence obtained in reaction without added compounds. […]

HIV-1IIIB = experiment: HIV cytoprotection assay, CEM-SS cells infected with HIV-1IIIB (MTS); type: cell-based; settings: for IC50: read-out: IC50 (concentration inhibiting virus replication by 50%)
Method: (§1) For the HIV cytoprotection assay, CEM-SS cells were used and the viruses HIV-1IIIB, HIV-1RF, or HIV-2ROD.
(§2) Briefly, virus and cells were mixed in the presence of a test compounds and incubated for 6 days. […] Each assay plate contained the following controls: cell control wells (cells only), virus control wells (cells plus virus), compound toxicity control wells (cells plus compound only), compound colorimetric control wells (compound only), as well as the experimental wells (compound plus cells plus virus). Cytoprotection and compound cytotoxicity were assessed by MTS (CellTiter® 96 Reagent, Promega, Madison Wis.) dye reduction, and the IC50 (concentration inhibiting virus replication by 50%), TC50 (concentration resulting in 50% cell death) and a calculated T1 (therapeutic index TC50/IC50) were obtained. Each assay included the HIV reverse transcriptase inhibitor AZT as a positive control.

[1] = Compound cytotoxicity on uninfected CEM-SS cells (MTS); type: cell-based; settings: human, read-out: TC50 (concentration resulting in 50% cell death)
Method: as §2

HIV-2ROD = experiment: HIV cytoprotection assay, CEM-SS cells infected with HIV-2ROD (MTS); type: cell-based
Method: as §1, §2

| SMILES | IC50 (HIV-1) [µM] | IC50 (hPOSH) [µM] | Antiviral Index (TI), TC50/IC50 (HIV-1IIIB; HIV-1IIIB, CEM-SS cells) | IC50 (HIV-1IIIB; Human immunodeficiency virus 1, CEM-SS, 144 h) [µM] | CC50 at 6 days ([1]; Table 1 (HIV-1IIIB experiment)) [µM] | IC50 (HIV-1IIIB; Human immunodeficiency virus 1, 144 h, HIV-1IIIB, CEM-SS cells, 6 days) [µM] | Antiviral Index (TI), TC50/IC50 (HIV-2ROD) | IC50 (HIV-2ROD; Human immunodeficiency virus 2, 144 h, 6 days, read-out: IC50 (concentration inhibiting virus replication by 50%)) [µM] | CC50 at 6 days ([1]; Table 2 (HIV-2ROD experiment)) [µM] |
| --- | --- | --- | --- | --- | --- | --- | --- | --- | --- |
| Cc1cc(C)nc(NS(=O)(=O)c2cc(Cl)ccc2Cl)n1 [Compound 1, 2,5-dichloro-N-(4,6-dimethylpyrimidin-2-yl)benzenesulfonamide] | 100 | 12 | >1.61 | 62 | > 100 | – | – | – | – |
| Cc1cc(C)nc(NS(=O)(=O)c2cc(Cl)ccc2Cl)c1 [Compound 2, 2,5-dichloro-N-(4,6-dimethylpyridin-2-yl)benzenesulfonamide] | – | – | 28.5 | – | 114 | 3.99 | 3.80 | 44.4 | 169 |
